Columns and labels:
[1] = system: MDR1-MDCK cell monolayers; conditions: dog, MDCK-MDR1, 120 min, 5 μM, pH 7.4
[2] = system: MDR1; test: in vitro; conditions: dog; for Papp A→B at 120 min, 5 μM: MDCK-MDR1, pH 7.4, MDCK-MDR1: Papp A-B (10^−6, cm/s); for Papp B→A at 120 min, 5 μM: MDCK-MDR1, pH 7.4, MDCK-MDR1: Papp B-A (10^−6, cm/s)
[3] = system: SMN protein; test: SMN protein assay (MSD) in SMA patient fibroblasts (GM03813); assay type: cell-based, human
Experimental: Compounds are tested on spinal muscular atrophy (SMA) patient fibroblasts (GM03813, Coriell) at doses ranging from 2.5 μM to 0.6 nM. 7000 cells/well are seeded in 96-well plates. Compounds are incubated for 48 hours and the cells were lysed with 100 μL of lysis buffer. 20 μL of lysate is used for SMN protein measurement by Mesoscale Discovery (MSD) assay developed by PharmOptima (Michigan). A standard curve prepared with SMN protein ranging from […] is used in each MSD plate to calculate the absolute SMN protein amount in each sample.

[4] = system: MDR1 (P-gp); test: MDCK-MDR1 permeability assay, blood-brain-barrier penetration potential; conditions: dog, MDCK-MDR1, pH 7.4, MDCK-MDR1 Efflux Ratio

| Structure (SMILES) | MDCK-MDR1: % Recov A-B (%) [1] | MDCK-MDR1: % Recov B-A (%) [1] | Papp A→B at 120 min, 5 μM [2] | Papp B→A at 120 min, 5 μM [2] | EC50 [3] | efflux ratio at 120 min, 5 μM [4] |
| --- | --- | --- | --- | --- | --- | --- |
| Oc1cc(-c2cn[nH]c2)c(F)cc1-c1cnc(N(C2CC2)[C@@H]2CC3CC[C@H](N3)[C@@H]2F)cn1 (single isomer, unassigned) [Compound 41E1] | 54% | 75% | 6.63 ×10⁻⁶ cm/s | 39.2 ×10⁻⁶ cm/s | 501 to 10000 nM | 8 |
| CN(c1cnc(-c2cc(F)c(-n3ccnn3)cc2O)cn1)[C@H]1C[C@@H]2CCC(N2)[C@H]1F (single isomer, unassigned) [Compound 21E2] | 78% | 85% | 11.3 ×10⁻⁶ cm/s | 48 ×10⁻⁶ cm/s | 501 to 10000 nM | 4 |
| Cn1cc(-c2ccc(-c3cnc(N(C4CC4)[C@@H]4C[C@@]5(C)CC[C@](C)(N5)[C@@H]4F)cn3)c(O)c2)cn1 [Compound 75E1, 2-(5-(cyclopropyl((1S,2R,3R,5R)-2-fluoro-1,5-dimethyl-8-azabicyclo[3.2.1]octan-3-yl)amino)pyrazin-2-yl)-5-(1-methyl-1H-pyrazol-4-yl)phenol] | 40% | 70% | 2.11 ×10⁻⁶ cm/s | 16.1 ×10⁻⁶ cm/s | 501 to 10000 nM | 8 |
| CN(c1cnc(-c2ccc3ccncc3c2O)cn1)[C@H]1C[C@@H]2CCC(N2)[C@H]1F (single isomer, unassigned) [Compound 71E2] | – | – | – | – | 16 to 50 nM | – |
| CN(c1cnc(-c2cc(F)c(-c3cnn(C)c3)cc2O)cn1)[C@@H]1CC2CC(F)(F)[C@@H](C1)N2 (single isomer, unassigned) [Compound 66E1] | 42% | 51% | 21.9 ×10⁻⁶ cm/s | 20.7 ×10⁻⁶ cm/s | 101 to 500 nM | 1 |
| CN(c1cnc(-c2cc(F)c(-c3ccn(C)c(=O)c3)cc2O)cn1)[C@@H]1CC2CCC[C@H](N2)[C@@H]1F (single isomer, unassigned) [Compound 12E1] | 78% | 83% | 1.99 ×10⁻⁶ cm/s | 54.9 ×10⁻⁶ cm/s | 101 to 500 nM | 28 |
| Cc1cc(-c2ccc(-c3cnc(N(C)[C@@H]4CC5CC[C@H](N5)[C@@H]4F)cn3)c(O)c2)cc(=O)[nH]1 (single isomer, unassigned) [Compound 77E1] | 64% | 71% | 0.34 ×10⁻⁶ cm/s | 21.9 ×10⁻⁶ cm/s | 501 to 10000 nM | 64 |
| CN(c1cnc(-c2ccc(-c3cc[nH]c(=O)c3)cc2O)cn1)[C@H]1C[C@@H]2COCC(N2)[C@H]1F (single isomer, unassigned) [Compound 82E2] | 45% | 54% | 0.27 ×10⁻⁶ cm/s | 32.2 ×10⁻⁶ cm/s | 501 to 10000 nM | 120 |
| CN(c1cnc(-c2ccc(-c3nnco3)cc2O)cn1)[C@H]1C[C@@H]2CCC(N2)[C@H]1F (single isomer, unassigned) [Compound 80E2] | 73% | 80% | 8.23 ×10⁻⁶ cm/s | 30.8 ×10⁻⁶ cm/s | 501 to 10000 nM | 4 |
| COc1cc(-c2ccc(-c3cnc(N(C)[C@H]4C[C@@H]5CCC(N5)[C@H]4F)cn3)c(O)c2)cc(F)n1 (single isomer, unassigned) [Compound 44E2] | 13% | 52% | 3.33 ×10⁻⁶ cm/s | 9.1 ×10⁻⁶ cm/s | 101 to 500 nM | 3 |
| Cc1nc(-c2ccc(-c3cnc(N(C)[C@@H]4CC5CC[C@H](N5)[C@@H]4F)cn3)c(O)c2)no1 (single isomer, unassigned) [Compound 69E1] | 49% | 61% | 9.43 ×10⁻⁶ cm/s | 17.9 ×10⁻⁶ cm/s | 501 to 10000 nM | 2 |
| CN(c1cnc(-c2ccc(-c3cc(=O)n(C)cn3)cc2O)cn1)[C@@H]1CC2CC[C@H](N2)[C@@H]1F (single isomer, unassigned) [Compound 47E1] | 74% | 78% | 2.32 ×10⁻⁶ cm/s | 52.8 ×10⁻⁶ cm/s | 101 to 500 nM | 23 |

— patent publication US11964971B2, “Methods and compositions for modulating splicing” (Skyhawk Therapeutics, Inc., priority 2019, dated 2024)
